Data reported in patent US20250098678A1, “METHOD OF CONTROLLING FUNGI” (UPL CORPORATION LIMITED, priority 2022, published 2025).

Assays:
[1] = tested on: Pythium ultimum; assay: Anti-fungal activity of treated seeds against Pythium ultimum (field trials, patch score); format: in vivo; details: for P. ultimum patch score: seed treatment, field trial
Excerpt: Example 2: Evaluation of Anti-Fungal Activity of Maize Seeds Treated with Cyazofamid Against Pythium ultimum The present inventors have determined the % pathogen control of Pythium ultimum control in […] treated with cyazofamid in field trials. The treatments employed and the results have been depicted in table 3 below. [table]

[2] = tested on: Plasmopara halstedii; assay: Anti-fungal activity of treated sunflower seeds against Plasmopara halstedii (seed treatment, % incidence); format: in vivo; details: for % Incidence: sunflower seed treatment, 12 DAS, inoculated with P. halstedii
Experimental: Example 1: Evaluation of Anti-Fungal Activity of Sunflower Seeds Treated with Cyazofamid Against Plasmopara halstedii One tray for each treatment was filled with perlite that was covered with two layers of watered paper. Treated seeds were placed between the layers under sterile conditions and incubated at 22° C. to 24° C., 100% relative humidity (RH) for 48 h. Zoosporangia from cotyledons of sunflower plants previously infected by an isolate of P. halstedii were removed with deionized water. The suspension was filtered through two layers of sterile cheesecloth and the inoculum concentration was adjusted to 2×10^5 zoosporangia/ml. Treated and germinated seeds were immersed in the zoosporangial suspension for 5 hours. Bioassays were then designed and conducted under controlled growth conditions. Five pots per treatment were filled with perlite and nine sunflower seeds were sown in each pot. Plants were grown at 19° C., 70-100% relative humidity and a 10 h dark/14 h light photoperiod for 12 days. The seed arrangement was made as 50 seeds/plot (pot10×10 cm). The treatments used are depicted below. [table] The % incidence of fungal disease caused by Plasmapora halstedii was observed 12 DAS (days after sowing seeds).

Cc1ccc(-c2c(Cl)nc(C#N)n2S(=O)(=O)N(C)C)cc1 [Cyazofamid, 4-chloro-2-cyano-N,N-dimethyl-5-p-tolylimidazole-1-sulfonamide]
P. ultimum patch score indicating the severity of the fungal disease ([1]; compared to the untreated control, result in words): significantly low | P. ultimum patch score ([1]; 10 g.ai/100 kg, 25 ml/100 kg seeds): 1.5 b | P. ultimum patch score ([1]; 20 g.ai/100 kg, 50 ml/100 kg seeds): 1.5 b | P. ultimum patch score ([1]; 30 g.ai/100 kg, 75 ml/100 kg seeds): 1.5 b | P. ultimum patch score ([1]; 50 g.ai/100 kg, 125 ml/100 kg seeds): 1.5 b | P. ultimum patch score ([1]; 100 g.ai/100 kg, 250 ml/100 kg seeds): 1.3 b | % Incidence ([2]; application rate 50 g/100/kg): 0% | % Incidence ([2]; application rate 100 g/100/kg): 0%

COCC(=O)N(c1c(C)cccc1C)C(C)C(=O)OC (centres unmarked) [Metalaxyl]
% Incidence ([2]; application rate 35 g/100/kg): 53.49% | % Incidence ([2]; application rate 60 g/100/kg): 62.24% | occurrence of fungal disease ([2]; treated sunflower seeds, result in words): high
